Laboratory results as given in patent US6969583B2, “Method for detecting variant HBV” (Melbourne Health, priority 2000, dated 2005).
Where “and” joins values, the source holds several entries; their conditions need not be identical. Equal values may be shown once. Read-outs that look alike come from different tables or passages of the source.

Legend:
Format in all cases: cell-based, Hepatitis B virus
[1] = tested on: L526M/M550V HBV baculovirus; assay: Antiviral testing with L526M/M550V HBV baculovirus in HepG2 cells (Example 15); details: for inhibition at 1 µM / IC50: Hepatitis B virus, dual (L526M/M550V) HBV; for inhibition at 1 µM: HepG2, ds HBV DNA band density vs untreated controls, estimated from fitted curve, negative = stimulation; for IC50: ds HBV DNA bands, HepG2 cells
Procedure: (§1) HepG2 cells were seeded at approximately 20-40% confluency and then were grown for 16-24 hours before infection. On the day of infection, triplicate plates of cells were trypsinized, and viable cell number was determined with a hemocytometer using Trypan blue exclusion. Average cell counts were calculated and used to determine the volume of high-titer viral stock necessary to infect cells at the indicated moi. HepG2 cells were washed one time with serum-free MEM to remove traces of serum. Baculovirus was diluted into MEM without serum to achieve the appropriate moi using volumes of 1.0, 0.5, and 0.25 ml to infect 100-mm, 60 mm, and 35-mm dishes, respectively. Baculovirus was adsorbed to HepG2 cells for one hour at 37° C. with gentle rocking every 15 minutes to ensure that the inoculum was evenly distributed. The inoculum was then aspirated and HepG2 cells were washed two times with phosphate-buffered saline and refed MEM-FBS with or without various concentrations of agents.
(§2) HBV core particles were isolated from the cytoplasmic fraction of HepG2 cells lysed in 0.5% w/v NP-40. Cytoplasmic extracts were adjusted to 10 mmol/l McC12 and unprotected DNA was removed by an incubation to […] for 1.5 hours at 37° C. Following sequential phenol and chloroform extractions, nucleic acids were recovered by ethanol precipitation. Nucleic acids were resuspended in 50 μl/l TE (10 mmol/l Tris, 1 mmol/l ethylenedianinetetraacetic acid), normalized by OD260, and digested with 100 μg/ml RNase (Boehringer Mannheim, Indianapolis, Ind.) for one hour at 37° C. before analysis by electrophoresis and Southern blotting. A BioRad GS-670 imaging densitometer and the Molecular Analyst software (BioRad, Hecules Calif.) was used to analyze suitable exposures of Southern blots. Densitometry data was fitted to logistic dose response curves using the TableCurve2D software package from Jandel Scientific. Logistic dose response equations were used to calculate IC50 and IC90 values and co-efficients of variation.
(§3) 3TC and PCV were a gift from Klaus Esser, SmithKline Beecham, Collegeville, Pa. PMEA was obtained from Gilead (Foster City, Calif.). 3TC was resuspended in sterile water, aliquoted, and frozen at −20° C. to avoid repeated freezing and thawing of the drug. PMEA was resuspended in sterile water after the pH was adjusted to 7.0 with NaOH. PCV was resuspended in dimethyl sulphoxide. Medium containing 3TC was prepared daily as needed using fresh aliquots of 3TC. In experiments in which 3TC treatment was initiated after viral infection, HepG2 cells were exposed to the indicated concentration of 3TC immediately after infection with HBV baculovirus. In experiments utilizing pretreatment with 3TC, cells were fed medium containing 3TC 16 hours prior to HBV baculovirus infection, HBV baculovirus infection was also carried out in medium containing 3TC, and cells were refed fresh medium containing 3TC immediately after completion of the infection and washing procedures. Treatment with PMEA and PCV were conducted in a similar manner.

[2] = tested on: wild-type HBV baculovirus; assay: Antiviral testing with wild-type HBV baculovirus in HepG2 cells (Example 15, Southern blot densitometry); details: for inhibition at 1 µM / IC50: Hepatitis B virus, wt HBV; for inhibition at 1 µM: HepG2, ds HBV DNA band density vs untreated controls, estimated from fitted curve, negative = stimulation of replication; for IC50: ds HBV DNA bands, HepG2 cells
Procedure: as §1, §2, §3
The dose effect of 3TC and PMEA, on wild-type HBV is shown graphically in FIG. 6 (A, B,) and a Southern Blot of intracellular HBV replicative intermediates and extracellular virus produced by HepG2 cells transduced with wild-type HBV-baculovirus in the presence of increasing concentrations of PCV is shown in FIG. 6C and the IC50 for each antiviral agent is shown in Table 2.

[3] = tested on: precore (G1896A) recombinant HBV-baculovirus; assay: Antiviral testing of the precore mutant (G1896A) HBV baculovirus in HepG2 cells (Example 17)
Procedure: as §1, §2
(§4) Conditioned medium was collected from HepG2 cells and subjected to centrifugation at 6,000 g for five minutes to remove cellular debris. HBV particles were precipitated with 10% w/v PEG 8000 and were concentrated by centrifugation at 12,000 ×g. Viral pellets were resuspended us 1 ml of MEM-FBS and divided into two aliquots. One set of aliquots was treated with 750 μg/ml Pronase for one hour and then with […] DNase 1 for one hour. Both sets of aliquots were then digested with Proteinase K, and extracted with phenol and chloroform. DNA was precipitated with 0.1 volume of 3 mol/l sodium acetate and 1 volume of isopropanol. Ten micrograms of transfer RNA was added as a carrier during precipitation. Pellets were resuspended in 25 μl of TE and digested with 0.5 mg/ml RNase for one hour. DNA was then analyzed by electrophoresis and Southern blotting.
as §3

L526M HBV baculovirus = assay: Antiviral testing with L526M HBV baculovirus in HepG2 cells (Example 15); details: for inhibition at 1 µM / IC50: Hepatitis B virus
Procedure: as §1, §2, §3

M550I HBV baculovirus = assay: Antiviral testing with M550I HBV baculovirus in HepG2 cells (Example 15); details: for inhibition at 1 µM / IC50: Hepatitis B virus, 550 (M550I) HBV; for inhibition at 1 µM: ds HBV DNA band density vs untreated controls, estimated from fitted curve, negative = stimulation; for IC50: ds HBV DNA bands
Procedure: as §1, §2, §3

[4] = tested on: wild-type (WT) recombinant HBV-baculovirus; assay: Antiviral testing, wild-type (1.3x genomic length) recombinant HBV-baculovirus in HepG2 cells (Example 17)
Procedure: as §1, §2, §4, §3

[5] = tested on: Precore/M550I recombinant HBV-baculovirus; assay: Antiviral testing, Precore/M550I recombinant HBV-baculovirus in HepG2 cells (Example 17); details: NDR = no dose response
Procedure: as §1, §2
as §4, with “Pellets were resuspended in 25 μl of TE and digested with 0.5 mg/ml RNase for one hour.” left out, “blotting. […]” for “blotting.”

[6] = tested on: any HBV/baculovirus variant encoding the mutations at M550I or L526M/M550V; assay: Southern blots of HBV DNA from HepG2 cells transduced with lamivudine-resistant recombinant HBV-baculovirus variants (Example 17); details: intracellular and extracellular HBV DNA, no dose response could be plotted
Procedure: as §1
(§5) HBV core particles were isolated from the cytoplasmic fraction of HepG2 cells lysed in 0.5% w/v NP-40. […]
(§6) Conditioned medium was collected from HepG2 cells and subjected to centrifugation at 6,000 g for five minutes to remove cellular debris. […] DNA was then analyzed by electrophoresis and Southern blotting. […]

[7] = tested on: Precore/L526M/M550V recombinant HBV-baculovirus; assay: Antiviral testing, Precore/L526M/M550V recombinant HBV-baculovirus in HepG2 cells (Example 17); details: NDR = no dose response
Procedure: as §1, §2
as §4, with “Pellets were resuspended in 25 μl of TE and digested with 0.5 mg/ml RNase for one hour.” left out, “blotting. […]” for “blotting.”

[8] = tested on: M550I recombinant HBV-baculovirus; assay: Antiviral testing, M550I recombinant HBV-baculovirus in HepG2 cells (Example 17); details: intracellular single-stranded HBV DNA, NDR = no dose response
Procedure: as §1, §5, §6

[9] = tested on: L526M/M550V recombinant HBV-baculovirus; assay: Antiviral testing, L526M/M550V recombinant HBV-baculovirus in HepG2 cells (Example 17); details: intracellular single-stranded HBV DNA, NDR = no dose response
Procedure: as §1, §5, §6

[10] = extracellular relaxed circular HBV DNA
[11] = intracellular single-stranded HBV DNA

Nc1ccn([C@@H]2CS[C@H](CO)O2)c(=O)n1 [Lamivudine, (−)-b-L-2′,3′-dideoxy-3′-thiacytidine]
inhibition at 1 µM [1]: -15% | IC50 [1]: 86.2 µM | Resistance Factor [1]: 9578 | inhibition at 1 µM [2]: 99.6% | IC50 [2]: 0.009 µM | Resistance Factor [2]: 1 | IC50 ([3]; Hepatitis B virus, HepG2, Precore (G1896A), extracellular relaxed circular HBV DNA, individual experiments behind the average, read-out: IC50, single experiments, EC RC): 0.012 µM | IC50 ([3]; Hepatitis B virus, HepG2, read-out: IC50 (μM), EC RC, Precore (G1896A), extracellular relaxed circular HBV DNA, averages where footnoted): 0.011 µM | IC50 ([3]; Hepatitis B virus, HepG2, read-out: IC50 (μM), IC SS, Precore (G1896A), intracellular single-stranded HBV DNA, averages where footnoted): 0.0207 µM | IC50 ([3]; Precore (G1896A), extracellular relaxed circular HBV DNA, individual experiments behind the average, read-out: IC50, single experiments, EC RC): 0.01 µM | IC50 ([3]; Precore (G1896A), intracellular single-stranded HBV DNA, individual experiments behind the average, read-out: IC50, single experiments, IC SS): 14 nM (2×) and 32 nM | inhibition at 1 µM (L526M HBV baculovirus; HepG2, 526 (L526M) HBV, ds HBV DNA band density vs untreated controls, estimated from fitted curve, negative = stimulation, read-out: Inhibition at 1 μM): 85.8% | IC50 (L526M HBV baculovirus; 526 (L526M) HBV, ds HBV DNA bands, HepG2 cells, read-out: IC50): 0.03 µM | shift in the IC50 compared to the wild-type (L526M HBV baculovirus; L526M vs wild-type, FIG. 7A): > 0.5 log | Resistance Factor (L526M HBV baculovirus; {}): 3 | inhibition at 1 µM (M550I HBV baculovirus; HepG2): 26.7% | IC50 (M550I HBV baculovirus; HepG2 cells, read-out: IC50): 3.8 µM | Resistance Factor (M550I HBV baculovirus): 422 | IC50 ([4]; Hepatitis B virus, HepG2, WT, intracellular single-stranded HBV DNA, individual experiments behind the average, read-out: IC50, single experiments, IC SS): 0.067 µM | IC50 ([4]; Hepatitis B virus, HepG2, read-out: IC50 (μM), EC RC, WT, extracellular relaxed circular HBV DNA, averages where footnoted): 0.018 µM | IC50 ([4]; Hepatitis B virus, HepG2, read-out: IC50 (μM), IC SS, WT, intracellular single-stranded HBV DNA, averages where footnoted): 0.0697 µM | IC50 ([4]; WT, extracellular relaxed circular HBV DNA, individual experiments behind the average, read-out: IC50, single experiments, EC RC): 0.022 µM and 0.0293 µM and 0.0095 µM | IC50 ([4]; WT, intracellular single-stranded HBV DNA, individual experiments behind the average, read-out: IC50, single experiments, IC SS): 0.085 µM and 0.0572 µM

Nc1nc2c(ncn2CCC(CO)CO)c(=O)[nH]1 [Penciclovir, 9-[4-hydroxy-3-(hydroxymethyl)but-1-yl]guanine]
IC50 (μM), EC RC [5, 10]: NDR | IC50 (μM), IC SS [5, 11]: NDR | resistance conferred by M550I or L526M/M550V changes [6]: high degree of resistance | change in sensitivity of L526M/M550V ([1]; FIG. 8A-8C, result in words): no substantial change | inhibition at 1 µM [1]: -10% | IC50 [1]: 370 µM | Resistance Factor [1]: 32 | IC50 (μM), EC RC [7, 10]: NDR | IC50 (μM), IC SS [7, 11]: NDR | inhibition at 1 µM [2]: 7% | IC50 [2]: 11.5 µM | effect on wild-type HBV replication ([2]; dose effect, FIG. 6, result in words): modest effect | Resistance Factor [2]: 1 | IC50 (μM), IC SS [8]: NDR | IC50 (μM), IC SS [9]: NDR | IC50 ([3]; Hepatitis B virus, HepG2, Precore (G1896A), extracellular relaxed circular HBV DNA, averages where footnoted, read-out: IC50 (μM), EC RC): 6 µM | IC50 ([3]; Hepatitis B virus, HepG2, Precore (G1896A), intracellular single-stranded HBV DNA, averages where footnoted, read-out: IC50 (μM), IC SS): 85 µM | sensitivity of G1896A HBV compared with wild type HBV ([3]; result in words): may be more sensitive | Resistance Factor (L526M HBV baculovirus; 526 (L526M) HBV, mutant IC50 divided by wt IC50, nearest integer): 9 | change in sensitivity of L526M compared to wild-type (L526M HBV baculovirus; FIG. 7A-7C, result in words): No significant change | IC50 (L526M HBV baculovirus; HepG2): 103 µM | inhibition at 1 µM (L526M HBV baculovirus; HepG2, read-out: Inhibition at 1 μM): -3% | inhibition at 1 µM (M550I HBV baculovirus; HepG2): -24% | IC50 (M550I HBV baculovirus; HepG2, extrapolated value, read-out: IC50 (μM), extrapolated value): 1220 µM | Resistance Factor (M550I HBV baculovirus): 106 | IC50 ([4]; Hepatitis B virus, HepG2, WT, extracellular relaxed circular HBV DNA, averages where footnoted, read-out: IC50 (μM), EC RC): 23 µM | IC50 ([4]; Hepatitis B virus, HepG2, WT, intracellular single-stranded HBV DNA, averages where footnoted, read-out: IC50 (μM), IC SS): 226 µM
